Reference: patent publication US20220055989A1, “CONDENSED PYRROLES AS NOVEL BROMODOMAIN INHIBITORS” (ALBERT LUDWING UNIVERSITÄT FREIBURG, priority 2018, published 2022)

Key:
[1] = molecular target: T1, PBRM1(5) (Homo sapiens, UniProt Q86U86); test: Bromodomain assay % Ctrl determination PBRM1(5); details: lower numbers indicate a stronger binding
T1 construct: T7 phage strains displaying bromodomains were grown in parallel; host or cells: T7 phage grown in E. coli host derived from BL21
Procedure: (§1) Compounds that bind the bromodomain prevent its binding to the immobilized ligand thus reducing the amount of protein captured. […] Hits are identified by measuring the amount of bromodomain captured in test versus control samples. Bromodomain assays for % Ctrl determination: T7 phage strains displaying bromodomains were grown in parallel in 24-well blocks in an E. coli host derived from the BL21 strain. E. coli were grown to log-phase and infected with T7 phage from a frozen stock (multiplicity of infection=0.4) and incubated with shaking at 32° C. until lysis (90-150 minutes). The lysates were centrifuged (5,000×g) and filtered (0.2 μm) to remove cell debris. […] The liganded beads were blocked with excess biotin and washed with blocking buffer (SeaBlock (Pierce), 1% BSA, 0.05% Tween 20, 1 mM DTT) to remove unbound ligand and to reduce non-specific phage binding. […] Test compounds were prepared as 1000× stocks in 100% DMSO and subsequently diluted 1:25 in monoethylene glycol (MEG). The compounds were then diluted directly into the assays such that the final concentrations of DMSO and MEG were 0.1% and 2.4%, respectively. All reactions were performed in polypropylene 384-well plates in a final volume of 0.02 ml. […] The bromodomain concentration in the eluates was measured by qPCR. […]

[2] = molecular target: T2, BRD9 (Homo sapiens, UniProt Q9H8M2); test: Bromodomain assay % Ctrl determination BRD9; details: lower numbers indicate a stronger binding
T2 construct: T7 phage strains displaying bromodomains were grown; host or cells: T7 phage in E. coli derived from BL21
T2 sequence (Q9H8M2 136-240 limits assumed): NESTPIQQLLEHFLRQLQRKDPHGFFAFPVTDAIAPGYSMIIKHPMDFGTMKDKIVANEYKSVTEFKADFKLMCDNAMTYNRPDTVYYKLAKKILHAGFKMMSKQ
Procedure: as §1

[3] = molecular target: T3, TRIM24(PHD, Bromo) (Homo sapiens, UniProt O15164); test: Bromodomain assay % Ctrl determination TRIM24(PHD, Bromo); details: lower numbers indicate a stronger binding
T3 construct: T7 phage strains displaying bromodomains were grown in parallel; host or cells: T7 phage grown in E. coli host derived from BL21
T3 sequence (O15164 824-1006 limits assumed): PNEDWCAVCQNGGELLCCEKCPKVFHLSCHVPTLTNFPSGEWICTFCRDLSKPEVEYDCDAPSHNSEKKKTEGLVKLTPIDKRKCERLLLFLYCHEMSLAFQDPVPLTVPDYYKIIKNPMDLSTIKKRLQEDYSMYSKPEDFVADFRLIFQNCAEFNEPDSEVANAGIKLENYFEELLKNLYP
Procedure: as §1

[4] = molecular target: T4, SMARCA2 (Homo sapiens, UniProt P51531); test: Bromodomain assay % Ctrl determination SMARCA2; details: lower numbers indicate a stronger binding
T4 construct: T7 phage strains displaying bromodomains were grown in parallel; host or cells: T7 phage grown in E. coli host derived from BL21
T4 sequence (P51531 1378-1506 limits assumed): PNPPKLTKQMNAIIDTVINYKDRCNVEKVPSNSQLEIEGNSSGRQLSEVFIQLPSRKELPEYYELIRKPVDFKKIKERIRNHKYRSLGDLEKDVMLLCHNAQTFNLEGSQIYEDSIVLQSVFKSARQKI
Procedure: as §1

[5] = molecular target: T5, EP300 (Homo sapiens, UniProt Q09472); test: Bromodomain assay % Ctrl determination EP300; details: lower numbers indicate a stronger binding
T5 construct: T7 phage strains displaying bromodomains were grown; host or cells: T7 phage in E. coli derived from BL21
T5 sequence (Q09472 1049-1156 limits assumed): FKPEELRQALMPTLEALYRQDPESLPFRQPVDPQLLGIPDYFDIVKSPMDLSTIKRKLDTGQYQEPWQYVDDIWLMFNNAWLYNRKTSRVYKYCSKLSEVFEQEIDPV
Procedure: as §1

[6] = molecular target: T6, BRPF3 (Homo sapiens, UniProt Q9ULD4); test: Bromodomain assay % Ctrl determination BRPF3; details: lower numbers indicate a stronger binding
T6 construct: T7 phage strains displaying bromodomains were grown; host or cells: T7 phage in E. coli derived from BL21
T6 sequence (Q9ULD4 589-693 limits assumed): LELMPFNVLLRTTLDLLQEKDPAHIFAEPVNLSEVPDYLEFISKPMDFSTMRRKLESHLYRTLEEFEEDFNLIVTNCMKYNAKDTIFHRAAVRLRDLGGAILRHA
Procedure: as §1

[7] = molecular target: T7, BRDT(1) (Homo sapiens, UniProt Q58F21); test: Bromodomain assay % Ctrl determination BRDT(1); details: lower numbers indicate a stronger binding
T7 construct: T7 phage strains displaying bromodomains were grown; host or cells: T7 phage in E. coli derived from BL21
Procedure: as §1

[8] = molecular target: T8, BRD3(1) (Homo sapiens, UniProt Q15059); test: Bromodomain assay % Ctrl determination BRD3(1); details: lower numbers indicate a stronger binding
T8 construct: T7 phage strains displaying bromodomains were grown in parallel; made in house; host or cells: T7 phage grown in an E. coli host derived from the BL21 strain
T8 sequence (Q15059 34-140 limits assumed): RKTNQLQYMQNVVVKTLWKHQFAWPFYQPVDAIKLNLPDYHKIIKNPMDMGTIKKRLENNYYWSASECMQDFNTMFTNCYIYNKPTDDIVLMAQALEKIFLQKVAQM
Procedure: as §1

[9] = molecular target: T9, WDR9(2) (Homo sapiens, UniProt Q9NSI6); test: Bromodomain assay % Ctrl determination WDR9(2); details: lower numbers indicate a stronger binding
T9 construct: T7 phage strains displaying bromodomains were grown in parallel; host or cells: T7 phage grown in E. coli host derived from BL21
T9 sequence (Q9NSI6 1313-1418 limits assumed): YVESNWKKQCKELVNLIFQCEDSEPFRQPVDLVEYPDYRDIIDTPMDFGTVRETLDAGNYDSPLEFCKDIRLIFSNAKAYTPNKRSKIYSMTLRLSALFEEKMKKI
Procedure: as §1

[10] = molecular target: T10, SMARCA4 (Homo sapiens, UniProt P51532); test: BROMOscan Kd determination SMARCA4; format: binding
T10 construct: T7 phage strains displaying bromodomains were grown in parallel; host or cells: T7 phage grown in E. coli host derived from BL21
T10 sequence (P51532 1453-1564 limits assumed): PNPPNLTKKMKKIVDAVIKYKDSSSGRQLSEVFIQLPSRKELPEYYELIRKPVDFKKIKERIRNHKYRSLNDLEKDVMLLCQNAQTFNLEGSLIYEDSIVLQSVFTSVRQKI
Procedure: (§2) Bromodomain profiling was carried out on the basis of BROMOscan™. This platform accounted for the indirect determination of the dissociation constants between 19 bromodomains and the compound of formula (13), by binding competition against a reference immobilized ligand. Compounds that bind the bromodomain prevent its binding to the immobilized ligand thus reducing the amount of protein captured. […] Hits are identified by measuring the amount of bromodomain captured in test versus control samples. Bromodomain assays for Kd determination: T7 phage strains displaying bromodomains were grown in parallel in 24-well blocks in an E. coli host derived from the BL21 strain. E. coli were grown to log-phase and infected with T7 phage from a frozen stock (multiplicity of infection=0.4) and incubated with shaking at 32° C. until lysis (90-150 minutes). The lysates were centrifuged (5,000×g) and filtered (0.2 μm) to remove cell debris. […] Kds were determined using an 11-point 3-fold compound dilution series with one DMSO control point. […] The bromodomain concentration in the eluates was measured by qPCR. […] Most Kds were determined using a compound top concentration=10,000 nM. […] Binding Constants (Kds): Binding constants (Kds) were calculated with a standard dose-response curve using the Hill equation: The Hill Slope was set to −1. […]

[11] = molecular target: T11, TRIM33(PHD, Bromo.) (Homo sapiens, UniProt Q9UPN9); test: BROMOscan Kd determination TRIM33(PHD, Bromo.); format: binding
T11 construct: TRIM33(PHD, Bromo.); the phage DNA is read by qPCR
T11 sequence (Q9UPN9 whole entry): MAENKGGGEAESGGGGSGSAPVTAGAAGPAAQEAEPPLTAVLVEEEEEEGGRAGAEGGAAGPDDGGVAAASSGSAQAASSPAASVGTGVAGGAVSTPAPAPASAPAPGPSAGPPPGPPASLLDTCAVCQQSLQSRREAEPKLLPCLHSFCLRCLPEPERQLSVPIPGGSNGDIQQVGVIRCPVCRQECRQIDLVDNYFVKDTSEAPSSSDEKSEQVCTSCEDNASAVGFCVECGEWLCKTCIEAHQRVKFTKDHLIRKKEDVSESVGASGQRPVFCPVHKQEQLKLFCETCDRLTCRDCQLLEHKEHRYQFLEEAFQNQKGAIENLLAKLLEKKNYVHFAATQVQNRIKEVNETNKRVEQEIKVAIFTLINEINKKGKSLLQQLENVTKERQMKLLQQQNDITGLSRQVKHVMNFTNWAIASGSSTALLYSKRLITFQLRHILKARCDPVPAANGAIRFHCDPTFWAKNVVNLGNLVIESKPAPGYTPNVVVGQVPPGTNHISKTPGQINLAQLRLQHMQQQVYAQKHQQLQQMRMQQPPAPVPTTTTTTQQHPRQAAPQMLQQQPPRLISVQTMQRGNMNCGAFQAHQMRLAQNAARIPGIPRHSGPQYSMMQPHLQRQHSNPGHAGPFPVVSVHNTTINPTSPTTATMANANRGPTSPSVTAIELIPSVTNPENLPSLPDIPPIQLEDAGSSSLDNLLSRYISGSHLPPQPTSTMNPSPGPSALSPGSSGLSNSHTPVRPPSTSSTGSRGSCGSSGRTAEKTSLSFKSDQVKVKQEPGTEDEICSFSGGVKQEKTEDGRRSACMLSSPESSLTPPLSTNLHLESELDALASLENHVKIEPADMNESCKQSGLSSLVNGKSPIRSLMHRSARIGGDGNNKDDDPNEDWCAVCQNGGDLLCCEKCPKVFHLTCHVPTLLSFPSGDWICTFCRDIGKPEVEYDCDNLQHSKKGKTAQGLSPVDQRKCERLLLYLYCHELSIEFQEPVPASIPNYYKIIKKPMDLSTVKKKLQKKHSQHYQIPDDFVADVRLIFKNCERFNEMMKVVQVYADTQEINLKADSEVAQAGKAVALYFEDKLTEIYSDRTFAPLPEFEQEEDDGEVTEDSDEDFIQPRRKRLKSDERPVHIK
Procedure: as §2

[12] = molecular target: T12, BRD2(1, 2) (Homo sapiens, UniProt P25440); test: BROMOscan Kd determination BRD2(1, 2); format: binding
T12 construct: T7 phage strains displaying bromodomains were grown in parallel; made in house; host or cells: T7 phage grown in an E. coli host derived from the BL21 strain
T12 sequence (P25440 71-455 limits assumed): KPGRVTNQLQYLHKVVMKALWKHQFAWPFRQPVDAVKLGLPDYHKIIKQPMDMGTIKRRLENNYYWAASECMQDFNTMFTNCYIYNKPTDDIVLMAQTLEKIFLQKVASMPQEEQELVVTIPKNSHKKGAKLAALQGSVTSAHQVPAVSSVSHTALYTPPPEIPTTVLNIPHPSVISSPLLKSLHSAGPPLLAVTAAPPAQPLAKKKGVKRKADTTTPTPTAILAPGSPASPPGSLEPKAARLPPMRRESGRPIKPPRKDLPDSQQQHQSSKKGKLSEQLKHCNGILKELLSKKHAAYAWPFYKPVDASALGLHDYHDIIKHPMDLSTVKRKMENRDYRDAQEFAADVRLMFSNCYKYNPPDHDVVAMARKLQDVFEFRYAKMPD
Procedure: as §2

[13] = molecular target: T6, BRPF3; test: BROMOscan Kd determination BRPF3; format: binding
Procedure: as §2

[14] = molecular target: T13, PCAF (Homo sapiens, UniProt Q92831); test: BROMOscan Kd determination PCAF; format: binding
T13 construct: T7 phage strains displaying bromodomains were grown in parallel; host or cells: T7 phage grown in E. coli host derived from BL21
T13 sequence (Q92831 723-827 limits assumed): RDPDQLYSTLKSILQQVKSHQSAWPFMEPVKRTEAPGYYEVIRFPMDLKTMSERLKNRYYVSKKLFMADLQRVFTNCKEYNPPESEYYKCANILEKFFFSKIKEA
Procedure: as §2

[15] = molecular target: T14, FALZ (Homo sapiens, UniProt Q12830); test: BROMOscan Kd determination FALZ; format: binding
T14 construct: T7 phage strains displaying bromodomains were grown in parallel; host or cells: T7 phage grown in E. coli host derived from BL21
Procedure: as §2

[16] = molecular target: T3, TRIM24(PHD, Bromo); test: BROMOscan Kd determination TRIM24(PHD, Bromo.); format: binding
Procedure: as §2

T1 sequence (Q86U86 653-763 limits assumed): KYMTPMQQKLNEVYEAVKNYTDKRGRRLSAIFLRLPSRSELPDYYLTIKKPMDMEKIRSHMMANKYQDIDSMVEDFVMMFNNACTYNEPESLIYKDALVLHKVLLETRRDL

Row | % Ctrl @ 10 000 nM PBRM1(5) [1] [% Ctrl] | % Ctrl @ 10 000 nM BRD9 [2] [% Ctrl] | % Ctrl @ 10 000 nM TRIM24(PHD, Bromo) [3] [% Ctrl] | % Ctrl @ 10 000 nM SMARCA2 [4] [% Ctrl] | % Ctrl @ 10 000 nM EP300 [5] [% Ctrl] | % Ctrl @ 10 000 nM BRPF3 [6] [% Ctrl] | % Ctrl @ 10 000 nM BRDT(1) [7] [% Ctrl] | % Ctrl @ 10 000 nM BRD3(1) [8] [% Ctrl] | % Ctrl @ 10 000 nM WDR9(2) [9] [% Ctrl] | Kd [10] [µM] | Kd [11] [µM] | Kd [12] [µM] | Kd [13] [µM] | Kd [14] [µM] | Kd [15] [µM] | Kd [16] [µM] | SMILES
1 | 90 | 0 | 82 | 83 | 1.4 | 35 | 0 | 0.05 | 81 | – | – | – | – | – | – | – | COc1ccc(S(=O)(=O)N2CCOCC2)cc1NC(=O)c1[nH]c(C)c2c1CCCCC2=O [Compound 13, N-(2-methoxy-5-(morpholinosulfonyl)phenyl)-3-methyl-4-oxo-2,4,5,6,7,8-hexahydrocyclohepta[c]pyrrole-1-carboxamide]
2 | – | – | – | – | – | – | – | – | – | > 10 | 7.7 | 0.084 | 6 | > 10 | 2.6 | 5.3 | Cc1[nH]c(-c2cc(N)ccc2Cl)c2c1C(=O)CCCC2 [Compound 23]
